Measured values: patent publication US11993581B2, “Pyridazine compounds for inhibiting Nav1.8” (Lieber Institute, Inc., priority 2018, dated 2024)

molecular target: T1, human Nav1.8 (hNav1.8) ion channel (Homo sapiens, UniProt Q9Y5Y9); experiment: Nav1.8 inhibition, estimated IC50 (Nav1.8 fluorescence, PatchXpress and/or IonFlux HT automated patch clamp assay); assay type: cell-based; conditions: HEK293 cells stably expressing hNav1.8; determined using one or more of the described methods; read-out: Activity range (estimated IC50)
T1 construct: expressed in transfected cells
Protocol: The ability of pyridine carboxamide derivatives exemplified above to inhibit the Nav1.8 channel was determined using one or more of the methods described below.
HEK Nav1.8 β1/β2 Stably Expressing Cell Line
A HEK293 cell line stably expressing the human Nav1.8 (hNav1.8) ion channel with β1/β2 subunits was constructed. The cell line is suitable for IC50 determination in fluorescence and electrophysiological based assays. It is also suitable to conduct mechanism of action pharmacology studies in electrophysiological assays. HEK293 Nav1.8 cells are grown as adherent monolayers in DMEM/high glucose media, 10% fetal bovine serum, Na pyruvate (2 mM), Hepes (10 mM) with selection agents G418 (400 mg/L) and puromycin (0.5 mg/L) at 37 degrees C., 10% CO2.
Nav1.8 Fluorescence Inhibition Assay
Compounds were made up to or supplied as a 10-mM stock solution using DMSO as the vehicle. Concentration-response curves were generated using a Matrix multichannel pipettor. Compound source plates were made by diluting 10 mM compound stocks to create 500 μM (100×) solutions in DMSO in 96-well v-bottom plates. Compounds were then serially diluted in 100% DMSO to generate a 5 point, 4-fold dilution scheme dose response curve. 2 μL of the 100× dose response curves were then added to preincubation and stimulation assay plates. 100 μL of pre-incubation buffer and 200 μl of stimulation buffer was then added to the plates resulting in a final assay test concentration range of 5 μM to 0.02 μM with a final DMSO concentration of 1%.
On the day of assay, plates were washed to remove cell culture media using 2K EBSS buffer (135 mM NaCl, 2 mM KCl, 5 mM Glucose, 2 mM CaCl2, 1 mM MgCl2, 10 mM HEPES, pH 7.4). The Na-sensitive fluorescent dye, Asante Natrium Green-2 (ANG-2) was incubated for 60 min to allow equilibration and then washed with 2K EBSS. Plates were then transferred to a fluorescence plate reader (FLIPR™, Molecular Devices) for fluorescence measurement using an excitation wavelength of 490 nm and an emission wavelength of 565 nm. Compounds were pre-incubated for 5 min at final test concentration in the presence of ouabain (30 μM) to inhibit Na+ efflux through Na+/K+ exchanger. Following the pre-incubation phase, hNav1.8 channels were stimulated with 10 μM of the pyrethroid deltamethrin to prevent channel inactivation. The assay was run for 15 minutes with vehicle and 30 μM tetracaine serving as negative and positive controls, respectively. The peak change in fluorescence relative to negative and positive control wells was calculated and fit with a logistic equation to determine IC50.
PatchXpress Nav1.8 Inhibition Assay
HEK-Nav1.8 β1/β2 cells were recorded in whole cell patch-clamp using the PatchXpress automated patch clamp platforms (Molecular Devices). Cell suspensions were obtained by trypsinization of adherent monolayers, followed by gentle rocking for minimally 30 min. Compounds were prepared from 10 mM DMSO stocks.
Nav1.8 channel variants were evaluated using Protocol 1 in which cells were initially voltage clamped at a holding potential of −100 mV to maintain Nav1.8 in a closed resting state. After current amplitude becomes stable, the mid-point voltage of steady state inactivation was determined for each cell using a series of 5 sec conditioning steps to increasingly depolarized voltages (−100 to 0 mV) The holding potential was then reset to a voltage that produces ˜50% inactivation (Vhalf-set automatically via PatchXpress scripts) so that closed and inactivated channel inhibition could be assessed. Protocol 1 was run at a frequency of 0.1 Hz until current amplitude is steady (automatically determined by PatchXpress scripts). The effect of test reagent on Nav current amplitude was monitored using custom PatchXpress stability scripts which determines the timing of compound addition and washout.
Data were processed and analyzed using DataXpress 2.0 (Molecular Devices). […]

T1 sequence (Q9Y5Y9 whole entry): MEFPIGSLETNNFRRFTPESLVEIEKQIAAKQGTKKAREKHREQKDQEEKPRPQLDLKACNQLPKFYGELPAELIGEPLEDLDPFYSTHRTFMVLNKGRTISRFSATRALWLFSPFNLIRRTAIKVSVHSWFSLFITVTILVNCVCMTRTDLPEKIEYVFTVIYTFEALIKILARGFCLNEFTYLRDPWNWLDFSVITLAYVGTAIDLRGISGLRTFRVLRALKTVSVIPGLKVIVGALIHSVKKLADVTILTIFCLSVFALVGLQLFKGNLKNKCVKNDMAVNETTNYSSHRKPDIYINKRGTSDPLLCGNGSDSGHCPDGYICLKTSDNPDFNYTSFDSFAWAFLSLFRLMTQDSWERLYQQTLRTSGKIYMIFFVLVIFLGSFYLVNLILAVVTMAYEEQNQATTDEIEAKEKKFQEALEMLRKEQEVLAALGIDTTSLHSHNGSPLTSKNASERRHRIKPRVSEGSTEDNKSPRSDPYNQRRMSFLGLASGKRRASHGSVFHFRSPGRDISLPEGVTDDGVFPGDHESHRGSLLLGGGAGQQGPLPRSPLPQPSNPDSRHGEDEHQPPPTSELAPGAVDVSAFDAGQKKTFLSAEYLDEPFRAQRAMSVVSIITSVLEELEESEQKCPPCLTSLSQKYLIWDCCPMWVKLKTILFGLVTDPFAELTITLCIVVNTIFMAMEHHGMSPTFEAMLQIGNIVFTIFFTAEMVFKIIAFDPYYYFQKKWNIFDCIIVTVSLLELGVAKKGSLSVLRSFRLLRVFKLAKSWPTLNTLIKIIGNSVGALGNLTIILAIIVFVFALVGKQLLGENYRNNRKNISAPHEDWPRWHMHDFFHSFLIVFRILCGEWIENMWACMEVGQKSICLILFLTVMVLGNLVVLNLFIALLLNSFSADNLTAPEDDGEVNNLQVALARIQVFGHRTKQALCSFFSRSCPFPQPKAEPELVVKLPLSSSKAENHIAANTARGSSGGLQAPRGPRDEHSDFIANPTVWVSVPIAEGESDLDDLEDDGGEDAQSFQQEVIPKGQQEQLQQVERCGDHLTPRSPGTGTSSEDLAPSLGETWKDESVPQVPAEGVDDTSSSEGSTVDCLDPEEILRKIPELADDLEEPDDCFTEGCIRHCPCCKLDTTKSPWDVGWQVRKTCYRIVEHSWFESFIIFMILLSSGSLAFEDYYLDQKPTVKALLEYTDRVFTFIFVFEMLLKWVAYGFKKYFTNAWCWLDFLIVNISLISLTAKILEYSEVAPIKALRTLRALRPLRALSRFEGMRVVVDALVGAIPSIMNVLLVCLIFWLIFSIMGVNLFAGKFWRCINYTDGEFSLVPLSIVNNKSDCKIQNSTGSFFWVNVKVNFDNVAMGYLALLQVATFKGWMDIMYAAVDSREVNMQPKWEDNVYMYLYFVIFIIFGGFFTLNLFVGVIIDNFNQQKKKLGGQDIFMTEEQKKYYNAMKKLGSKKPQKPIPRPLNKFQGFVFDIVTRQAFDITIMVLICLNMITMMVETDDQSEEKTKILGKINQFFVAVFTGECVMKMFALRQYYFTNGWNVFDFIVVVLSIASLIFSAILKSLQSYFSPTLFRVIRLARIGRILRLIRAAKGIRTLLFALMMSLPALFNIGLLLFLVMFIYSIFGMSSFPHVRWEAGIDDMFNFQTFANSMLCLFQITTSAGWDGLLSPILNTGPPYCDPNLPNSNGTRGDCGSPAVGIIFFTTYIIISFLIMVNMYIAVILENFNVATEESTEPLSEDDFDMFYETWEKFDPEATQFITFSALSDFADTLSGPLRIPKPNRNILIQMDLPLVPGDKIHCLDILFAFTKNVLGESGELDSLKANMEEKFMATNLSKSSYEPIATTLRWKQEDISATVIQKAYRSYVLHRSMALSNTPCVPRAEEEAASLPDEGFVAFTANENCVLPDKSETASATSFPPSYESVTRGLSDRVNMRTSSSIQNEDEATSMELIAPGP
T1 sequence (Q07699 19-218 partner): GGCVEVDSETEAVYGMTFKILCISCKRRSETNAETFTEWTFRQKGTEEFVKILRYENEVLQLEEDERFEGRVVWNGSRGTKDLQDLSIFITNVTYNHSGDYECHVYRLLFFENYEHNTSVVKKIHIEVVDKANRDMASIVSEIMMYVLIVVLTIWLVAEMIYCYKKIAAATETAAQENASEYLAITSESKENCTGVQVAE

Structure (SMILES) | IC50
O=C(NCc1ccccc1N1CCOCC1)c1cnnc(-c2ccc(OCC3CC3)c(Cl)c2)c1 [Example 27, 6-[3-chloro-4-(cyclopropylmethoxy)phenyl]-N-[(2-morpholinophenyl)methyl]pyridazine-4-carboxamide] | < 500 nM
O=C(NCc1cccnc1N1CCOCC1)c1cnnc(-c2ccc(OCC3CC3)c(Cl)c2)c1 [Example 1, 6-(3-chloro-4-(cyclopropylmethoxy)phenyl)-N-((2-morpholinopyridin-3-yl)methyl)pyridazine-4-carboxamide] | < 500 nM
Cc1cnc(N2CCOCC2)c(CNC(=O)c2cnnc(-c3ccc(OCC4CC4)c(Cl)c3)c2)c1 [Example 26, 6-[3-chloro-4-(cyclopropylmethoxy)phenyl]-N-[(5-methyl-2-morpholino-3-pyridyl)methyl]pyridazine-4-carboxamide] | > 1000 nM
